Assay results from ChEMBL document CHEMBL1142025 (Bioorg Med Chem Lett, 2005).

Experiments:
[1] = target: T1, Human immunodeficiency virus type 1 protease (Human immunodeficiency virus 1, UniProt Q72874); assay: Binding affinity against human immunodeficiency virus (HIV) protease; type: single protein, human immuno deficiency virus protease
Pepsin A = Pepsin A (Homo sapiens, UniProt P0DJD9); assay: Inhibitory concentration against pepsin
[2] = target: T1, Human immunodeficiency virus type 1 protease; assay: Inhibitory concentration against human immunodeficiency virus (HIV) protease; design: species or system human immuno deficiency virus protease
Renin = target: T2, Renin (Homo sapiens, UniProt P00797); assay: Inhibitory concentration against renin
T2 sequence (P00797 whole entry): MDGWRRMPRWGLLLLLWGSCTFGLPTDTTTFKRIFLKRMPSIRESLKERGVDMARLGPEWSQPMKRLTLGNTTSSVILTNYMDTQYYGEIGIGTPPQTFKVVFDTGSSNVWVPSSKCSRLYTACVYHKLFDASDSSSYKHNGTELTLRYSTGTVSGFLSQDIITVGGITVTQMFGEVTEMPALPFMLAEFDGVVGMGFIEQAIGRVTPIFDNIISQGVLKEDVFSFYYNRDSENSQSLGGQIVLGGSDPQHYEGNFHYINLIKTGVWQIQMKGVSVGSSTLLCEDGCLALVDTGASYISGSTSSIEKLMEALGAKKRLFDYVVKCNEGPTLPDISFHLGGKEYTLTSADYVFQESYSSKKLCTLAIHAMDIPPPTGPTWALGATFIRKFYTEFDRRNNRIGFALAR

[3] = Inhibitory concentration against cathepsin

Sequence of Pepsin A (P0DJD9 whole entry): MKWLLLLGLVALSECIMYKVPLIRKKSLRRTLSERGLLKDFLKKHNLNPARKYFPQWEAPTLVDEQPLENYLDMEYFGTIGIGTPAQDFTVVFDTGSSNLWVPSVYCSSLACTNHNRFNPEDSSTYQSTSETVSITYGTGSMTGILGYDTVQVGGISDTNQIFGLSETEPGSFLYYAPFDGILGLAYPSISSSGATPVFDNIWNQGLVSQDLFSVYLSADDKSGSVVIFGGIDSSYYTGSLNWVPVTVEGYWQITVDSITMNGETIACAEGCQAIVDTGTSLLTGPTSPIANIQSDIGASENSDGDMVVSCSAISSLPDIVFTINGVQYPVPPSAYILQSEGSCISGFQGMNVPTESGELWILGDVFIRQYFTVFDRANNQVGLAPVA

| Compound | Ki [1] | also measured |
| --- | --- | --- |
| CC(C)CN([C@@H](CCCCNC(=O)OCC1c2ccccc2-c2ccccc21)C(=O)O)S(=O)(=O)c1ccc(F)cc1 | 17.4 nM |  |
| CC(C)CN([C@@H](CCCCNC(=O)OCC1c2ccccc2-c2ccccc21)C(=O)O)S(=O)(=O)c1ccc(N)cc1 | 2.1 nM | IC50 (Pepsin A): 4100 nM; IC50 [2]: 2.1 nM; IC50 (Renin): 5200 nM; IC50 [3]: 10300 nM |
| Cc1ccc(S(=O)(=O)N(CC2CC2)[C@@H](CCCCNC(=O)OCC2c3ccccc3-c3ccccc32)C(=O)O)cc1 | 3.9 nM |  |
| CC(C)CN([C@@H](CCCCNC(=O)OCC1c2ccccc2-c2ccccc21)C(=O)O)S(=O)(=O)c1cccs1 | 42 nM |  |
| Cc1ccc(S(=O)(=O)N(CC(C)C)[C@@H](CCCCNC(=O)OC(C)(C)C)C(=O)O)cc1 | > 250 nM |  |
| CC(C)(C)OC(=O)NCCCC[C@H](NC(=O)OCc1ccccc1)C(=O)O | > 100000 nM |  |
| Cc1ccc(S(=O)(=O)N[C@@H](CCCCNC(=O)OC(C)(C)C)C(=O)O)cc1 | > 100000 nM |  |
| CC(C)CN([C@@H](CCCCNC(=O)OCC1c2ccccc2-c2ccccc21)C(=O)O)S(=O)(=O)c1ccc([N+](=O)[O-])cc1 | 7.2 nM |  |
| CC(C)CN([C@@H](CCCCNC(=O)OCC1c2ccccc2-c2ccccc21)C(=O)O)S(=O)(=O)c1ccc(C(C)(C)C)cc1 | 257 nM |  |
| CC(C)CN([C@@H](CCCCNC(=O)OCC1c2ccccc2-c2ccccc21)C(=O)O)S(=O)(=O)c1cccc2ccccc12 | 54.9 nM |  |
| Cc1ccc(S(=O)(=O)N(Cc2ccccc2)[C@@H](CCCCNC(=O)OCC2c3ccccc3-c3ccccc32)C(=O)O)cc1 | 19.6 nM |  |
| CCC(CC)CN([C@@H](CCCCNC(=O)OCC1c2ccccc2-c2ccccc21)C(=O)O)S(=O)(=O)c1ccc(C)cc1 | 15.2 nM |  |
| CCC(C)CN([C@@H](CCCCNC(=O)OCC1c2ccccc2-c2ccccc21)C(=O)O)S(=O)(=O)c1ccc(C)cc1 (stereo partly drawn) | 13.5 nM |  |
| Cc1ccc(S(=O)(=O)N(CC2CCCC2)[C@@H](CCCCNC(=O)OCC2c3ccccc3-c3ccccc32)C(=O)O)cc1 | 5.2 nM |  |
| Cc1ccc(S(=O)(=O)N(CC(C)C)[C@@H](CCCCNC(=O)CC2c3ccccc3-c3ccccc32)C(=O)O)cc1 | 89.7 nM |  |
| Cc1ccc(S(=O)(=O)N(CC(C)C)[C@@H](CCCNC(=O)OCC2c3ccccc3-c3ccccc32)C(=O)O)cc1 | 180 nM |  |

More lines, main results first:

| Ki [1] | Compound | also measured |
| --- | --- | --- |
| > 250 nM | Cc1ccc(S(=O)(=O)N(CC(C)C)[C@@H](CCCCNC(=O)OCc2ccccc2)C(=O)O)cc1 |  |
| > 300 nM | COC(=O)[C@H](CCCCNC(=O)OC1c2ccccc2-c2ccccc21)N(CC(C)C)S(=O)(=O)c1ccc(C)cc1 |  |
| > 300 nM | Cc1ccc(S(=O)(=O)N(CC(C)C)[C@@H](CCCCNC(=O)OC2c3ccccc3-c3ccccc32)c2nnn[nH]2)cc1 |  |
| 107 nM | Cc1ccc(S(=O)(=O)N(CC(C)C)[C@H](CO)CCCCNC(=O)OC2c3ccccc3-c3ccccc32)cc1 |  |
| 26200 nM | Cc1ccc(S(=O)(=O)NCCC[C@H](NC(=O)OCC2c3ccccc3-c3ccccc32)C(=O)O)cc1 |  |
| 107 nM | Cc1ccc(S(=O)(=O)N(CC(C)C)[C@@H](CCCCNC(=O)OC2c3ccccc3-c3ccccc32)C(N)=O)cc1 |  |
| 254 nM | Cc1ccc(S(=O)(=O)N(CC(C)C)[C@@H](CCCCNC(=O)OC2c3ccccc3-c3ccccc32)C(=O)NN)cc1 |  |
| 105 nM | Cc1ccc(S(=O)(=O)N(CC(C)C)[C@@H](CCCCNC(=O)OC2c3ccccc3-c3ccccc32)C(=O)O)cc1 |  |
| > 250 nM | Cc1ccc(S(=O)(=O)N(CC(C)C)[C@@H](CCNC(=O)OCC2c3ccccc3-c3ccccc32)C(=O)O)cc1 |  |
| 127 nM | Cc1ccc(S(=O)(=O)N(CC(C)C)[C@@H](CCCCNC(=O)OC2c3ccccc3-c3ccccc32)C(=N)S)cc1 |  |
| > 250 nM | Cc1ccc(S(=O)(=O)N(CC(C)C)[C@@H](CCCCCNC(=O)OCC2c3ccccc3-c3ccccc32)C(=O)O)cc1 |  |
| 2000 nM | Cc1ccc(S(=O)(=O)N(CCCC[C@H](NC(=O)OCC2c3ccccc3-c3ccccc32)C(=O)O)CC(C)C)cc1 |  |
| 5 nM | Cc1ccc(S(=O)(=O)N(CC(C)C)[C@@H](CCCCNC(=O)OCC2c3ccccc3-c3ccccc32)C(=O)O)cc1 | IC50 (Pepsin A): 5400 nM; IC50 [2]: 5 nM; IC50 (Renin): 6500 nM; IC50 [3]: 15600 nM |
| 245 nM | Cc1ccc(S(=O)(=O)N(CC(C)C)[C@@H](CCCCNC(=O)OC2c3ccccc3-c3ccccc32)C(=O)NO)cc1 |  |
| 280 nM | Cc1ccc(S(=O)(=O)N(CC(C)C)[C@@H](CCCCNC(=O)OC2c3ccccc3-c3ccccc32)C(=N)N)cc1 |  |
| > 300 nM | Cc1ccc(S(=O)(=O)N(CC(C)C)[C@H](C=O)CCCCNC(=O)OC2c3ccccc3-c3ccccc32)cc1 |  |
| > 250 nM | Cc1ccc(S(=O)(=O)N(CC(C)C)[C@@H](CNC(=O)OCC2c3ccccc3-c3ccccc32)C(=O)O)cc1 |  |
| > 300 nM | CC(C)CN(C(=O)c1ccccc1)[C@@H](CCCCNC(=O)OCC1c2ccccc2-c2ccccc21)C(=O)O |  |
| > 300 nM | Cc1ccc(S(=O)(=O)N(CC(C)C)[C@H](CN)CCCCNC(=O)OC2c3ccccc3-c3ccccc32)cc1 |  |
